Common to all, as to assay: NCI tumour cell line growth inhibition, 48 h
Assay [1] deals with HOP-92 NSCLC.
In assay [2] the test system is LOX IMVI melanoma.
In assay [3] the test system is MALME-3M melanoma.
In assay [4] the test system is MOLT-4 leukemia.
Assay [5] relates to NCI-H226 lung.
Assay [6] deals with NCI-H23 lung.
In assay [7] the test system is OVCAR-3 ovarian.
Assay [8] relates to OVCAR-4 ovarian.
Assay [9] concerns SK-MEL-2 melanoma.
Assay [10] concerns MDA-MB-435.

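Five compound concentrations were applied to cells in 96-well plates for 48 hours; endpoints were derived by simple linear interpolation of the resulting dose-response curve. GI50 marks 50% less growth. At the TGI there is no net growth.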

With `CSc1cc(C(C)(C)C)ccc1C(O)c1ccc(C(C)(C)C)cc1SC`, the TGI in assay [1] was found to be 28.9 µM; in assay [2] it was 24.3 µM; in assay [3], 29.9 µM; in assay [4] it was 21.6 µM; in assay [5] it was 27 µM; in assay [6], 29.8 µM. For the same compound, the figures for the TGI in assay [7], in assay [8] and in assay [9] were 24.9 µM, 22.9 µM and 34.1 µM, respectively.

In the case of `CCOP(=O)(OCC)C(NC(c1ccccc1)c1ccccc1)c1ccc(C(C)C)cc1` (stereo unspecified), the GI50 is 1.97 µM in assay [1]; 4.33 µM in assay [2]; 3.71 µM in assay [10]; 1.71 µM in [4]; 6.38 µM in assay [6]; 1.87 µM in assay [7]. Moreover, the GI50 is 2.57 µM in [8] and 19.2 µM in assay [9]. Besides, the TGI in [1] was found to be 11 µM; in [2], 16 µM; in assay [10] it was 11.6 µM; in [4], 4.25 µM; in assay [6] it was 20.7 µM; in assay [7] it was 6.15 µM. In addition, the TGI came to 64.8 µM in assay [8] and 72.7 µM in assay [9].

On to `N#CC(C#N)=C1CCC2C(=C(C#N)C#N)CCC12` (stereo unspecified), for which the TGI in [1], in [2], in assay [3], in assay [4], in assay [5] and in [6] was over 100 µM in each case. The TGI in assay [7] and in [8] was over 100 µM in each case.

With `CC(=O)O[C@H]1CC[C@]2(C)C3C(=O)C[C@]4(C)[C@@H](C(C)CCC(=O)O)CC[C@@]4(C)[C@@H]3CC[C@H]2C1(C)C` (stereo partly specified), the GI50 in assay [1] was 36.8 µM; in assay [2], 7.64 µM; in assay [10] it was 13.5 µM; in assay [4], over 50 µM; in [5], over 50 µM; in assay [6], 19.1 µM. The GI50 was 25.9 µM in [7], 40.4 µM in assay [8] and 45.8 µM in assay [9]. The TGI is over 50 µM in assay [1]; 20.7 µM in assay [2]; 33.8 µM in assay [10]; over 50 µM in assay [4]; over 50 µM in assay [5]; over 50 µM in [6]. Further, the TGI in assay [7], in assay [8] and in assay [9] was over 50 µM in each case.

Regarding `CC1(C)CN(CCNc2nccc(-c3c(-c4cccc(O)c4)nc4sccn34)n2)S(=O)(=O)N1`, the GI50 in [1] was 29.4 µM; in assay [2] it was 1.82 µM; in [10] it was 0.641 µM; in [4], 11.3 µM; in assay [5], 10.4 µM; in [6], 16.8 µM. Moreover, the GI50 in [7] was 12.2 µM; in assay [8], 12.8 µM; in [9], 1.36 µM. For the same compound, the TGI in [1] was over 33.2 µM; in assay [2], over 33.2 µM; in assay [10] it was over 33.2 µM; in assay [4], over 33.2 µM; in assay [5], 32.4 µM; in assay [6], over 33.2 µM. Also, the TGI in assay [7] is over 33.2 µM; in assay [8], over 33.2 µM; in [9], 4.83 µM.

With `O=C(c1ccc(Nc2nccc(NCCCCNc3ccnc4cc(Cl)ccc34)n2)cc1)N1CCCCC1`, the GI50 in assay [1] is 1.52 µM; in assay [2], 0.971 µM; in assay [10], 1.7 µM; in assay [4], 1.74 µM; in assay [5] it was 3.59 µM; in assay [6], 2.95 µM. The GI50 in [7] was 1.92 µM; in assay [8] it was 1.95 µM; in assay [9], 2.08 µM. In addition, the TGI in assay [1] is 3.95 µM; in assay [2], 2.33 µM; in assay [10] it was 3.89 µM; in assay [4] it was 5.99 µM; in [5], 13.7 µM; in assay [6] it was 15.7 µM. For the same compound, the TGI in [7] came to 4.63 µM; in assay [8], 7.52 µM; in assay [9], 4.03 µM.

On to `CC(=O)[CH-]C(=O)c1ccccc1.CC(=O)[CH-]C(=O)c1ccccc1.CC(=O)[CH-]C(=O)c1ccccc1.[Br-].[Zr+4]`, for which the GI50 in assay [1] is 18.6 µM; in [2], 89.7 µM; in [3], 20.2 µM; in assay [4], 47.2 µM; in [6] it was over 100 µM; in assay [7], 48.1 µM. Besides, the GI50 in assay [8] is 82.1 µM; in assay [9] it was 38.5 µM. The TGI in assay [1] was 61.4 µM; in assay [2], over 100 µM; in assay [3], 55.3 µM; in assay [4], over 100 µM; in assay [6], over 100 µM; in assay [7], over 100 µM. For the same compound, the TGI in assay [8] and in [9] was over 100 µM in each case.

With `FC(F)(F)c1nc(Br)[nH]c1C(F)(F)F`, the TGI in assay [1] was 71.7 µM; in [2], over 100 µM; in assay [3], over 100 µM; in [4] it was over 100 µM; in assay [5], over 100 µM; in assay [6] it was over 100 µM. Moreover, the TGI in assay [7], in assay [8] and in [9] was over 100 µM in each case.

As for `C=C1C(C(=O)O)C1C(=O)O` (stereo unspecified), the TGI in assay [1], in assay [2], in [3], in [4], in [5] and in assay [6] was over 100 µM in each case. In addition, the TGI in assay [8] and in assay [9] was over 100 µM in each case.

For `COc1cc(NCCC2CCCCN2)c2ncccc2c1OC` (stereo unspecified), the GI50 was 1.95 µM in [2]; 14.2 µM in [3]; 23.5 µM in assay [5]; 7.09 µM in assay [6]; 2.13 µM in assay [7]; 1.5 µM in assay [8]. In assay [9], the GI50 is 3.13 µM. In addition, the TGI in assay [2] worked out at 5.49 µM; in [3], 30 µM; in [5], 46.8 µM; in [6], 31.3 µM; in assay [7], 5.01 µM; in assay [8], 2.86 µM. Also, the TGI in assay [9] came out at 9.07 µM.

Regarding `CCOC(=O)c1ccc(NC(=O)c2cccc(NC3=C(Cl)C(=O)N(Cc4ccccc4)C3=O)c2)cc1`, the GI50 is 78.8 µM in assay [1]; 60.3 µM in assay [2]; over 100 µM in assay [10]; 28.1 µM in assay [4]; over 100 µM in assay [5]; over 100 µM in [7]. Further, the GI50 in [8] and in assay [9] was over 100 µM each time. For the same compound, the TGI in [1] is over 100 µM; in [2], over 100 µM; in assay [10], over 100 µM; in assay [4] it was 99.2 µM; in [5], over 100 µM; in assay [7], over 100 µM. Moreover, the TGI in assay [8] and in assay [9] was over 100 µM throughout.

Regarding `CN(C)CCNC(=O)c1cccc2c1nc(-c1ccncc1)c1ccccc12`, the TGI in [1] is 9.77 µM; in [2], 3.66 µM; in assay [4], over 100 µM; in assay [5], 10.5 µM; in assay [6], 13.1 µM; in assay [7] it was 30.4 µM. Moreover, the TGI in assay [8] came out at 15.6 µM; in assay [9] it was 19.1 µM.

On to `CC[P+]1(c2ccccc2)CCCCC1`, for which the TGI in assay [1], in assay [2], in [3], in assay [4], in assay [5] and in [6] was over 100 µM throughout. The TGI in [7], in assay [8] and in assay [9] was over 100 µM in each case.

For the compound `O=C(OCc1ccccc1)n1cccc1`, the TGI in assay [1], in assay [2], in [3], in assay [4], in assay [5] and in assay [6] was over 100 µM each time. The TGI in [7], in assay [8] and in assay [9] was over 100 µM in each case.

Regarding `CCOC(=O)c1cc2c(n1Cc1cc(OC)cc(OC)c1)-c1oncc1CC2`, the GI50 in [1] is 45.2 µM; in assay [2], 0.593 µM; in assay [4], 0.525 µM; in assay [5], 2.75 µM; in assay [6], 0.307 µM; in [7] it was 0.0389 µM. For the same compound, the figures for the GI50 in assay [8] and in assay [9] were 1.06 µM and over 100 µM, respectively. Further, the TGI was over 100 µM in assay [1]; over 100 µM in assay [2]; over 100 µM in [4]; over 100 µM in assay [5]; over 100 µM in [6]; 0.197 µM in [7]. For the same compound, the TGI in assay [8] and in assay [9] was over 100 µM each time.

As for `O=C1CCc2ccc(O)c(c2)Oc2ccc(cc2)[C@@H]2O[C@@H]2CO1`, the TGI was 88.2 µM in [1]; over 100 µM in [2]; 62.1 µM in assay [3]; over 100 µM in assay [4]; over 100 µM in assay [5]; over 100 µM in [6]. Further, the TGI in [7], in [8] and in assay [9] was over 100 µM each time.

The values are drawn from PubChem BioAssay (NCI).
